The record followed here is patent publication US20140155406A1, “4-IMIDAZOPYRIDAZIN-1-YL-BENZAMIDES AND 4-IMIDAZOTRIAZIN-1-YL-BENZAMIDES BTK INHIBITORS” (priority 2011, published 2014).

One test deals with T1, Btk enzyme (His-Btk) (Homo sapiens, UniProt Q06187).
T1 construct: His; purchased Millipore 14-552
Nature of the test: Btk enzyme activity, IMAP fluorescence polarization assay. In kind it is biochemical. Conditions: 60 min pre-incubation, 5 μM ATP (Km). The source says: Inhibition of kinase activity can be measured using the Immobilized Metal Assay for Phosphochemicals (IMAP) assay. IMAP is a homogeneous fluorescence polarization (FP) assay based on affinity capture of phosphorylated peptide substrates. IMAP uses fluorescein-labeled peptide substrates that, upon phosphorylation by a protein kinase, bind to so-called IMAP nanoparticles, which are derivatized with trivalent metal complexes. Binding causes a change in the rate of the molecular motion of the peptide, and results in an increase in the FP value observed for the fluorescein label attached to the substrate peptide (Gaudet et al. A homogeneous fluorescence polarization assay adaptable for a range of protein serine/threonine and tyrosine kinases. J. Biomol. Screen (2003) 8, 164-175).
Btk enzyme activity is measured using the IMAP (immobilized metal ion affinity-based fluorescence polarization) assay as outlined below.
Btk enzyme (His-Btk (Millipore catalog#14-552), is diluted to 0.4 U/mL in KR buffer (10 mM Tris-HCl, 10 mM MgCl2, 0.01% Tween-20, 0.05% NaN3, 1 mM DTT, 2 mM MnCl2, pH 7.2).
Serial dilution log 10 from 2 mM to 63.2 nM of test compounds are made in 100% DMSO. The dilutions in DMSO are then diluted 50-fold in KR-buffer. Final compound concentration range in the assay from 10 μM to 0.316 nM.
5 μL/well of test compound in KR buffer (final DMSO concentration in the assay is 1%) is mixed with 5 μl/well of 0.4 U/mL Btk enzyme (final concentration in the assay is 0.1 U/mL). Test compounds and Btk enzyme are pre-incubated 60 minutes at room temperature, before adding 5 μL/well of 200 nM Fluorescin labeled substrate peptide (Blk/Lyntide substrate, e.g. #R7188/#R7233, Molecular Devices) in KR-buffer. Final peptide substrate concentration in assay is 50 nM. The kinase assay is started by adding 5 μL/well of 20 μM ATP in KR-buffer (final ATP concentration is 5 μM ATP, Km ATP in Btk IMAP assay). Following incubation for 2 h at room temperature the enzyme reaction is stopped by adding 40 μL/well IMAP Progressive Binding Solution (according to suppliers (Molecular Devices) protocol using 75% 1× buffer A and 25% 1× buffer B with 1:600 Progressive Binding Solution). After 60 min incubation at room temperature in the dark the FP signal is read. Fluorescence at 535 nm is measured using parallel and perpendicular filters to determine differences in rotation due to binding of the phosphorylated substrate peptide to the beads. Values are calculated as percentage of the difference in readout (ΔmPi) of the controls with and without ATP. EC50 values are determined by curve fitting of the experimental results using Activity Base.
A general note: In fluorescence polarisation assays a small probe gives low polarisation when free and higher when bound to something large.

Another test concerns the target T2, FynT enzyme (Homo sapiens, UniProt P06241).
T2 construct: purchased Biomol SE-287
Put plainly: FynT enzyme activity, IMAP fluorescence polarization assay. In kind it is biochemical. Conditions: 60 min pre-incubation, 0.2 μM ATP (Km). Here is the method: FynT enzyme activity is measured using the IMAP (immobilized metal ion affinity-based fluorescence polarization) assay as outlined below.
FynT enzyme (Biomol catalog# SE-287), is diluted to 0.5 μg/mL in KR buffer (10 mM Tris-HCl, 10 mM MgCl2, 0.01% Tween-20, 0.05% NaN3, 1 mM DTT, 2 mM MnCl2, pH 7.2). Serial dilution log 10 from 2 mM to 63.2 nM of test compounds are made in 100% DMSO. The dilutions in DMSO are then diluted 50-fold in KR-buffer of which 5 μl is used in the assay, leading to a final compound concentration range in the assay from 10 μM to 0.316 nM. 5 μL/well of test compound in KR buffer (final DMSO concentration in the assay is 1%) is mixed with 5 μl/well of 0.5 μg/mL FynT enzyme (final concentration in the assay is 125 ng/mL). Test compounds and FynT enzyme are pre-incubated 60 minutes at room temperature, before adding 5 μL/well of 400 nM Fluorescin labeled substrate peptide (p34cdc2 substrate peptide, e.g. #R7157/#R7172, Molecular Devices) in KR-buffer. Final peptide substrate concentration in assay is 100 nM. The kinase assay is started by adding 5 μL/well of 0.8 μM ATP in KR-buffer (final ATP concentration is 0.2 μM ATP, Km ATP in FynT IMAP assay). Following incubation for 2 h at room temperature the enzyme reaction is stopped by adding 40 μL/well IMAP Progressive Binding Solution (according to suppliers (Molecular Devices) protocol using 75% 1× buffer A and 25% 1× buffer B with 1:600 Progressive Binding Solution). After 60 min incubation at room temperature in the dark the FP signal is read. Fluorescence at 535 nm is measured using parallel and perpendicular filters to determine differences in rotation due to binding of the phosphorylated substrate peptide to the beads. Values are calculated as percentage of the difference in readout (ΔmPi) of the controls with and without ATP. EC50 values are determined by curve fitting of the experimental results using Activity Base.

T1 sequence (Q06187 whole entry): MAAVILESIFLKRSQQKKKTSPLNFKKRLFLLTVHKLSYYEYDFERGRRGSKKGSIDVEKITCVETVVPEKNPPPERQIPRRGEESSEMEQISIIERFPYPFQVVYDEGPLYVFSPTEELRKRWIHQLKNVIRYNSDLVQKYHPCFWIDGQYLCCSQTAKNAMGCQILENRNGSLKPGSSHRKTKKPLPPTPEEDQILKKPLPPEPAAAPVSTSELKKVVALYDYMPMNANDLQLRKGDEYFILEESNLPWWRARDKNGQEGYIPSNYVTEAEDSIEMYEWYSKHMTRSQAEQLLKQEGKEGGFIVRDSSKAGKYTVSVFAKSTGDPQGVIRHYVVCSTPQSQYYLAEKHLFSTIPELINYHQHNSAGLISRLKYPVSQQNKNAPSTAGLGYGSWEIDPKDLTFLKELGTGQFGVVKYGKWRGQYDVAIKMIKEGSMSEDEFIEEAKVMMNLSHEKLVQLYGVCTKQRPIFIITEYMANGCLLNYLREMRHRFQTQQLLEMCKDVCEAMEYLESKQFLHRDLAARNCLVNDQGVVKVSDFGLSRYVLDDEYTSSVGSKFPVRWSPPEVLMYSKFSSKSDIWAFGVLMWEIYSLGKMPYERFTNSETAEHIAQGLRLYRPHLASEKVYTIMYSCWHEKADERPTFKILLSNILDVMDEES
T2 sequence (P06241 1-534 isoform P06241-2): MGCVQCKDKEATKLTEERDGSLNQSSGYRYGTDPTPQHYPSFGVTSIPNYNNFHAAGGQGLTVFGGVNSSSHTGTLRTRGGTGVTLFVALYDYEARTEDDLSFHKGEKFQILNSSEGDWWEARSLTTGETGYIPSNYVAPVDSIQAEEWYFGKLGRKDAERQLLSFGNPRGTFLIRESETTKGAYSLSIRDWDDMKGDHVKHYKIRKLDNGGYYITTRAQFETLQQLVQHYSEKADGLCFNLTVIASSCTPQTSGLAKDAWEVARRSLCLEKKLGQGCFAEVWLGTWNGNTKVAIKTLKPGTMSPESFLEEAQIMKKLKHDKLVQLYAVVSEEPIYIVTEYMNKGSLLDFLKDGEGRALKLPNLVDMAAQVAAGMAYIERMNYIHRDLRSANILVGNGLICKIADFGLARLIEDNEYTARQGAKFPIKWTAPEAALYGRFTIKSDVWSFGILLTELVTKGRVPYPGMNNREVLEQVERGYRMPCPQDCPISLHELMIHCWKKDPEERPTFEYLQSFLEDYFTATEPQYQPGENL

On to `C=CC(=O)N1CCCC[C@H]1c1nc(-c2ccc(C(=O)Nc3cc(CCC)ccn3)cc2)c2c(C)nccn12` [Example 2, (S)-4-(3-(1-Acryloylpiperidin-2-yl)-8-methylimidazo[1,5-a]pyrazin-1-yl)-N-(4-propylpyridin-2-yl)benzamide], for which the EC50 – broadly, the midpoint of the concentration-response curve – is less than 10 nM on Btk enzyme (His-Btk) (bin bounds given in nM) and no less than 1000 nM at FynT enzyme.

In the case of `CCCc1ccnc(NC(=O)c2ccc(-c3nc([C@@H]4CCCCN4C(=O)/C=C/CN(C)C)n4ccnc(C)c34)cc2)c1` [Example 3, (S,E)-4-(3-(1-(4-(Dimethylamino)but-2-enoyl)piperidin-2-yl)-8-methylimidazo[1,5-a]pyrazin-1-yl)-N-(4-propylpyridin-2-yl)benzamide], the 50% effective concentration (EC50) on Btk enzyme (His-Btk) (bin bounds given in nM) is less than 10 nM; on FynT enzyme, no less than 1000 nM.

As to `C=CS(=O)(=O)N1CCCC[C@H]1c1nc(-c2ccc(C(=O)Nc3cc(CCC)ccn3)cc2)c2c(C)nccn12` [Example 4, (S)-4-(8-Methyl-3-(1-(vinylsulfonyl)piperidin-2-yl)imidazo[1,5-a]pyrazin-1-yl)-N-(4-propylpyridin-2-yl)benzamide], the concentration giving a half-maximal response (EC50) was less than 10 nM at Btk enzyme (His-Btk) (bin bounds given in nM) and no less than 1000 nM on FynT enzyme.

Regarding `COC/C=C/C(=O)N[C@@H](C)c1nc(-c2ccc(C(=O)Nc3cc(C(F)(F)F)ccn3)cc2)c2c(C)nccn12` [Example 6, (S,E)-4-(3-(1-(4-Methoxybut-2-enamido)ethyl)-8-methylimidazo[1,5-a]pyrazin-1-yl)-N-(4-(trifluoromethyl)pyridin-2-yl)benzamide], the concentration for a half-maximal effect (EC50) was less than 10 nM at Btk enzyme (His-Btk) (bin bounds given in nM) and no less than 1000 nM on FynT enzyme.

Turning to `CC#CC(=O)N[C@@H](C)c1nc(-c2ccc(C(=O)Nc3cc(C(F)(F)F)ccn3)cc2)c2c(C)nccn12` [Example 7, (S)-4-(3-(1-But-2-ynamidoethyl)-8-methylimidazo[1,5-a]pyrazin-1-yl)-N-(4-(trifluoromethyl)pyridin-2-yl)benzamide], the 50% effective concentration (EC50) on Btk enzyme (His-Btk) (bin bounds given in nM) was less than 10 nM; at FynT enzyme, no less than 1000 nM.

Regarding `C=CC(=O)N[C@@H](C)c1nc(-c2ccc(C(=O)Nc3cc(C(F)(F)F)ccn3)cc2)c2c(C)nccn12` [Example 8, (S)-4-(3-(1-Acrylamidoethyl)-8-methylimidazo[1,5-a]pyrazin-1-yl)-N-(4-(trifluoromethyl)pyridin-2-yl)benzamide], the half-maximal effective concentration (EC50) was less than 10 nM on Btk enzyme (His-Btk) (bin bounds given in nM) and no less than 1000 nM on FynT enzyme.

For `C=CC(=O)N1CCC[C@H]1c1nc(-c2ccc(C(=O)Nc3cc(CCC)ccn3)cc2)c2c(C)nccn12` [Example 9, (S)-4-(3-(1-Acryloylpyrrolidin-2-yl)-8-methylimidazo[1,5-a]pyrazin-1-yl)-N-(4-propylpyridin-2-yl)benzamide], the half-maximal effective concentration (EC50) is less than 10 nM at Btk enzyme (His-Btk) (bin bounds given in nM) and no less than 1000 nM at FynT enzyme.

Regarding `C=CC(=O)N1CCC[C@H]1c1nc(-c2ccc(C(=O)Nc3cc(C(F)(F)F)ccn3)cc2)c2c(C)nccn12` [Example 10, (S)-4-(3-(1-Acryloylpyrrolidin-2-yl)-8-methylimidazo[1,5-a]pyrazin-1-yl)-N-(4-(trifluoromethyl)pyridin-2-yl)benzamide], the values for the concentration for a half-maximal effect (EC50) on Btk enzyme (His-Btk) (bin bounds given in nM) and on FynT enzyme were less than 10 nM and no less than 1000 nM, respectively.

With `C=CC(=O)N1CCC[C@H]1c1nc(-c2ccc(C(=O)Nc3cc(C#N)ccn3)cc2)c2c(C)nccn12` [Example 13, (S)-4-(3-(1-Acryloylpyrrolidin-2-yl)-8-methylimidazo[1,5-a]pyrazin-1-yl)-N-(4-cyanopyridin-2-yl)benzamide], the EC50 on Btk enzyme (His-Btk) (bin bounds given in nM) is less than 10 nM; on FynT enzyme it was no less than 1000 nM.

Take `CC#CC(=O)N1CCC[C@H]1c1nc(-c2ccc(C(=O)Nc3cc(C)ccn3)cc2)c2c(C)nccn12` [Example 15, (S)-4-(3-(1-but-2-ynoylpyrrolidin-2-yl)-8-methylimidazo[1,5-a]pyrazin-1-yl)-N-(4-methylpyridin-2-yl)benzamide]: the EC50 at Btk enzyme (His-Btk) (bin bounds given in nM) was no less than 100 nM; at Btk enzyme (His-Btk) (bounds given in μM), less than 1000 nM; on FynT enzyme, no less than 1000 nM.

`CCCc1ccnc(NC(=O)c2ccc(-c3nc([C@H](C)N(C)C(=O)/C=C/CN(C)C)n4ccnc(C)c34)cc2)c1` [Example 18, (S,E)-4-(3-(1-(4-(dimethylamino)-N-methylbut-2-enamido)ethyl)-8-methylimidazo[1,5-a]pyrazin-1-yl)-N-(4-propylpyridin-2-yl)benzamide]: the concentration giving a half-maximal response (EC50) on Btk enzyme (His-Btk) (bin bounds given in nM) is less than 10 nM; at FynT enzyme, no less than 1000 nM.

Turning to `C=CC(=O)N1CCC[C@H]1c1nc(-c2ccc(C(=O)Nc3ccccn3)cc2)c2c(C)nccn12` [Example 19, (S)-4-(3-(1-acryloylpyrrolidin-2-yl)-8-methylimidazo[1,5-a]pyrazin-1-yl)-N-(pyridin-2-yl)benzamide], the results for the concentration for a half-maximal effect (EC50) on Btk enzyme (His-Btk) (bin bounds given in nM) and on FynT enzyme were less than 10 nM and no less than 1000 nM, respectively.

Regarding `Cc1nccn2c([C@@H]3CCCCN3C(=O)/C=C/CN3CCCC3)nc(-c3ccc(C(=O)Nc4cc(C(F)(F)F)ccn4)cc3)c12` [Example 21, (S,E)-4-(8-methyl-3-(1-(4-(pyrrolidin-1-yl)but-2-enoyl)piperidin-2-yl)imidazo[1,5-a]pyrazin-1-yl)-N-(4-(trifluoromethyl)pyridin-2-yl)benzamide], the EC50 on Btk enzyme (His-Btk) (bin bounds given in nM) was less than 10 nM; on FynT enzyme it was no less than 1000 nM.

Take `CC#CC(=O)N1CCCC[C@H]1c1nc(-c2ccc(C(=O)Nc3cc(CCC)ccn3)cc2)c2c(C)nccn12` [Example 22, (S)-4-(3-(1-but-2-ynoylpiperidin-2-yl)-8-methylimidazo[1,5-a]pyrazin-1-yl)-N-(4-propylpyridin-2-yl)benzamide]: the EC50 was less than 10 nM at Btk enzyme (His-Btk) (bin bounds given in nM) and no less than 1000 nM at FynT enzyme.

On to `C=CC(=O)N[C@@H](C)c1nc(-c2ccc(C(=O)Nc3cc(CCC)ccn3)cc2)c2c(C)nccn12` [Example 23, (S)-4-(3-(1-acrylamidoethyl)-8-methylimidazo[1,5-a]pyrazin-1-yl)-N-(4-propylpyridin-2-yl)benzamide], for which the EC50 is less than 10 nM at Btk enzyme (His-Btk) (bin bounds given in nM) and no less than 1000 nM on FynT enzyme.

As to `CC#CC(=O)N(C)[C@@H](C)c1nc(-c2ccc(C(=O)Nc3cc(CCC)ccn3)cc2)c2c(C)nccn12` [Example 24, (S)-4-(8-methyl-3-(1-(N-methylbut-2-ynamido)ethyl)imidazo[1,5-a]pyrazin-1-yl)-N-(4-propylpyridin-2-yl)benzamide], the EC50 on Btk enzyme (His-Btk) (bin bounds given in nM) was less than 10 nM; on FynT enzyme, no less than 1000 nM.

Turning to `Cc1nccn2c([C@@H]3CCCN3C(=O)/C=C/CN3CCCC3)nc(-c3ccc(C(=O)Nc4ccccn4)cc3)c12` [Example 25, (S,E)-4-(8-methyl-3-(1-(4-(pyrrolidin-1-yl)but-2-enoyl)pyrrolidin-2-yl)imidazo[1,5-a]pyrazin-1-yl)-N-(pyridin-2-yl)benzamide], the concentration for a half-maximal effect (EC50) on Btk enzyme (His-Btk) (bin bounds given in nM) was no less than 100 nM; at Btk enzyme (His-Btk) (bounds given in μM) it was less than 1000 nM; on FynT enzyme, no less than 1000 nM.
